In US8076375B2 (priority 2005, dated 2011):
“And” between values parts separate entries of the source, which are not always exact repeats. Identical values can stand only once. “Also recorded” adds a separate entry of the source. Like-named read-outs stand apart in the source and are kept apart here.

What was measured:
[1] = target: vaccinia virus B1 kinase (GST-B1) (Vaccinia virus, UniProt P20505); assay: biochemical; assay type: biochemical; conditions: for remaining activity at 10 µM: read-out: Percent activity remaining at 10 μM, B1; for inhibition at 10 µM: read-out: Inhibition of GST-B1 (of the control value)
wild-type vaccinia virus = assay: microbe, parasite or virus in culture; assay type: cell-based; conditions: for inhibition at 100 µM: Orthopoxvirus vaccinia, HeLa
[2] = system: Lck (activated F505 form); assay type: biochemical; conditions: for Effect on Lck activity (in words): 10 μM
[3] = mouse, in vivo, cited from earlier work
[4] = system: ts2 and ts25 vaccinia virus mutants; assay type: cell-based
[5] = system: vesicular stomatitis virus (VSV); assay type: cell-based

Compound | remaining activity at 10 µM [1] | Effect on virus growth in HeLa cell culture (in words) (wild-type vaccinia virus) | Percent Lck activity remaining [2] | Effect on Lck activity (in words) [2] | IC50 [1] | inhibition at 10 µM [1] | Toxic effects in mammals [3] | Effect on growth of wild-type vaccinia virus (in words) (wild-type vaccinia virus) | also measured
O=S(=O)(O)c1ccc(NN(c2c(O)ccc3ccccc23)S(=O)(=O)O)cc1 [Compound 9600-Q, 4-[N′-(2-hydroxynaphthalen-1-yl)-N′-sulfo-hydrazino]benzenesulfonic acid] | 93 ± 2% | no apparent effect | 53 ± 18% | minimally inhibited |  |  |  |  | Effect on B1 kinase activity in vitro (in words) [1]: inhibiting B1 almost not at all
O=C(O)C1CCCCC1c1c2ccc(=O)c(O)c-2oc2c(O)c(O)ccc12 (stereo not drawn) [Compound 119910-U, 2-(4,5,6-trihydroxy-3-oxo-xanthen-9-yl)cyclohexane-1-carboxylic acid] | 0% | no apparent effect | 59% | minimally inhibited | 3.5 µM | ≥ 87% | no toxic effects were observed |  | 
2-methylnaphthalene-bis(hexachlorocyclopentadiene) adduct [reference compound] |  |  |  |  |  |  |  |  | Effect on growth of ts2 and ts25 vaccinia virus, FIG. 1 (in words) [4]: did not inhibit; Effect on growth of ts2 or ts25 vaccinia virus (in words) [4]: no effect
O=C(O)C=Cc1ccc[c]([Sb](=[O])([OH])[OH])c1 [Compound 13778-J, 3-(3-stibonophenyl)prop-2-enoic acid] |  |  | 79 ± 9% |  |  |  |  | inhibited the growth | Effect on B1 kinase activity in vitro (in words) [1]: inhibiting B1 almost not at all; also recorded: stimulated B1 in vitro
CC1C2C=CC1C(c1c3ccc(=O)c(O)c-3oc3c(O)c(O)ccc13)C2C(=O)O (stereo not drawn) [Compound 119913-X, 7-methyl-6-(4,5,6,-trihydroxy-3-oxo-xanthen-9-yl)-bicyclo[2.2.1]hetp-2-ene-5-carboxylic acid] | 1% |  | 56% | minimally inhibited | 2.5 µM | ≥ 87% | no toxic effects were observed | inhibited the growth | Effect on growth of ts2 and ts25 mutant viruses (in words) [4]: reproducibly inhibited the growth
O=C(O)c1cc2c(cc1S(=O)(=O)O)C1C(C3C2C2(Cl)C(Cl)=C(Cl)C3(Cl)C2(Cl)Cl)C2(Cl)C(Cl)=C(Cl)C1(Cl)C2(Cl)Cl (stereo not drawn) [Compound 270718-R, 3-sulfo-2-naphthoic acid-bis(hexachlorocyclopentadiene) adduct] | 12 ± 14% |  | 86 ± 46% |  | 2.5 µM | ≥ 87% | no toxic effects were observed | inhibited the growth | Effect on growth of VSV (in words) [5]: essentially no effect; Effect on growth of VSV, FIG. 1 (in words) [5]: not the growth of VSV; Inhibition of growth of VSV (in words) [5]: slight; Activity under reduced-serum conditions relative to 10% serum (wild-type vaccinia virus): approximately four-fold; Effect on growth of wild-type vaccinia virus, FIG. 1 (in words) (wild-type vaccinia virus): inhibited the growth; Inhibition of growth of wild-type vaccinia virus (wild-type vaccinia virus): 90% and 99%; inhibition at 100 µM (wild-type vaccinia virus; read-out: Inhibition of growth of wild-type vaccinia virus, example of FIG. 1): 93%; inhibition at 100 µM (wild-type vaccinia virus; read-out: Inhibition of wild-type vaccinia virus): 84%; Effect on growth of ts2 and ts25 mutant viruses (in words) [4]: reproducibly inhibited the growth; Effect on growth of ts2 and ts25 vaccinia virus, FIG. 1 (in words) [4]: inhibited the growth; Inhibition of growth of ts2 and ts25, single experiment (FIG. 1) ([4]; 100 µM): 99%; Inhibition of growth of vaccinia virus over 24 hours ([4]; 100 µM): 86-99%; Effect on growth of human Ramos B cells (human Ramos B cells): no effect; Toxicity in mice ([3]; 200 mg/kg): No toxicity
O=C(O)c1cccc(/N=N/c2c(S(=O)(=O)O)ccc3c2C(=O)c2ccccc2C3=O)c1O [Compound 125908-P, 3-(9,10-dioxo-2-sulfo-anthracen-1-yl)diazenyl-2-hydroxy-benzoic acid] | 23% | no apparent effect | 53% | minimally inhibited |  |  |  |  | 
O=C1c2ccccc2C(=O)c2c(NC3CCCCC3)ccc(Nc3ccc(S(=O)(=O)O)cc3)c21 [Compound 128437-O, 4-(4-cyclohexylamino-9,10-dioxo-anthracen-1-yl)aminobenzenesulfonic acid] | 47% |  | 88% |  |  |  |  | inhibited the growth | 
CN[C@@H]1C[C@H]2O[C@@](C)([C@@H]1OC)n1c3ccccc3c3c4c(c5c6ccccc6n2c5c31)C(=O)NC4 [staurosporine, reference compound] |  |  |  |  |  |  |  |  | Effect on B1 kinase activity in vitro (in words) [1]: inhibited B1 or F10 kinase
CCc1c(O)c2c(c(O)c1C(C)=O)C(=O)c1c(cc(O)c(C(=O)O)c1C(=O)O)C2=O [Compound 170008-Y, 2-acetyl-7,8-bis(dihydroxymethylidene)-3-ethyl-9-hydroxy-anthracene-1,4,6,10-tetrone] | 12% | no apparent effect | 81% |  | 2.5 µM | ≥ 87% |  |  | 
O=C(O)C=Cc1c2ccc(=O)c(O)c-2oc2c(O)c(O)ccc12 [Compound 119911-V, 3-(4,5,6-trihydroxy-3-oxo-xanthen-9-yl)prop-2-enoic acid] | 0% | no apparent effect | 70% |  | 3 µM | ≥ 87% | no toxic effects were observed |  | 
Nc1nc(N)c(/N=N/c2ccc(C(=O)O)c(O)c2)c(N)n1 [Compound 117285-R, 2-hydroxy-4-(2,4,6-triaminopyrimidin-5-yl)diazenyl-benzoic acid] | 4 ± 2% | no apparent effect | 76 ± 25% |  | 1 µM | ≥ 87% |  |  | 
O=C(O)CCc1c2ccc(=O)c(O)c-2oc2c(O)c(O)ccc12 [Compound 119915-Z, 3-(4,5,6-trihydroxy-3-oxo-xanthen-9-yl)propanoic acid] | 1% | no apparent effect | 78% |  | 3 µM | ≥ 87% | no toxic effects were observed |  | 
